The source of these data is publication PMC5218480 (PLoS ONE, 2017).

The subject of this test is MV-4-11 cells. Nature of the test: Gene expression microarray analysis (Affymetrix PrimeView) and GSEA. It counts as cell-based, human. Also on record: RFU PODN (11730768_x_at) / Fold change /veh PODN (11730768_x_at) / RFU LINC00158 (11744669_a_at) / Fold change /veh LINC00158 (11744669_a_at) / RFU DUSP10 (11751237_a_at) / Fold change /veh DUSP10 (11751237_a_at) / RFU ID3 (11757404_x_at) / Fold change /veh ID3 (11757404_x_at) / RFU PLEKHG5 (11737974_s_at) / Fold change /veh PLEKHG5 (11737974_s_at) / RFU LRRC4B (11730491_at) / Fold change /veh LRRC4B (11730491_at) / RFU GIMAP4 (11747438_a_at) / Fold change /veh GIMAP4 (11747438_a_at) / RFU KRT8 (11758183_x_at) / Fold change /veh KRT8 (11758183_x_at) / RFU CNN1 (11734310_a_at) / Fold change /veh CNN1 (11734310_a_at) / RFU VPS37D (11726825_at) / Fold change /veh VPS37D (11726825_at) / RFU C10orf10 (11716522_x_at) / Fold change /veh C10orf10 (11716522_x_at) / RFU KIR2DL2 /// KIR2DL4 /// KIR2DL5A /// KIR2DL5B /// KIR2DS1 /// KIR2DS2 /// KIR2DS3 /// KIR2DS4 /// KIR3DL3 /// KIR3DL3 /// KIR3DS1 (11738374_at) / Fold change /veh KIR2DL2 /// KIR2DL4 /// KIR2DL5A /// KIR2DL5B /// KIR2DS1 /// KIR2DS2 /// KIR2DS3 /// KIR2DS4 /// KIR3DL3 /// KIR3DL3 /// KIR3DS1 (11738374_at) / RFU C1QL1 (11718748_at) / Fold change /veh C1QL1 (11718748_at) / RFU TMPRSS4 (11747572_a_at) / Fold change /veh TMPRSS4 (11747572_a_at) / RFU HAMP (11756126_x_at) / Fold change /veh HAMP (11756126_x_at) / RFU RNFT2 (11725882_a_at) / Fold change /veh RNFT2 (11725882_a_at) / RFU NR4A2 (11747474_a_at) / Fold change /veh NR4A2 (11747474_a_at) / RFU ABCC12 (11746883_a_at) / Fold change /veh ABCC12 (11746883_a_at) / RFU TMEM136 (11760407_x_at) / Fold change /veh TMEM136 (11760407_x_at) / RFU CLDN22 /// WWC2 (11732394_at) / Fold change /veh CLDN22 /// WWC2 (11732394_at) / RFU HLA-DPB1 (11760878_x_at) / Fold change /veh HLA-DPB1 (11760878_x_at) / RFU SPINT1 (11716480_a_at) / Fold change /veh SPINT1 (11716480_a_at) / RFU GAP43 (11754022_s_at) / Fold change /veh GAP43 (11754022_s_at) / RFU A4GNT (11735810_at) / Fold change /veh A4GNT (11735810_at) / RFU PRB3 (11715151_x_at) / Fold change /veh PRB3 (11715151_x_at) / RFU TUBB4B (11761932_at) / Fold change /veh TUBB4B (11761932_at) / RFU CAPN14 (11732068_a_at) / Fold change /veh CAPN14 (11732068_a_at) / RFU TMCC2 (11721928_a_at) / Fold change /veh TMCC2 (11721928_a_at) / RFU IRGQ (11745062_a_at) / Fold change /veh IRGQ (11745062_a_at) / RFU FAM174B (11720279_a_at) / Fold change /veh FAM174B (11720279_a_at) / RFU TMPRSS4 (11748680_a_at) / Fold change /veh TMPRSS4 (11748680_a_at) / RFU FAM212B (11763350_a_at) / Fold change /veh FAM212B (11763350_a_at) / RFU PLEKHG5 (11743358_a_at) / Fold change /veh PLEKHG5 (11743358_a_at) / RFU ZSCAN30 (11745921_a_at) / Fold change /veh ZSCAN30 (11745921_a_at) / RFU CMKLR1 (11741424_a_at) / Fold change /veh CMKLR1 (11741424_a_at) / RFU LOC101060620 /// MAPK8IP1 (11723275_at) / Fold change /veh LOC101060620 /// MAPK8IP1 (11723275_at) / RFU SPTSSB (11747773_x_at) / Fold change /veh SPTSSB (11747773_x_at) / RFU PRSS12 (11739890_at) / Fold change /veh PRSS12 (11739890_at) / RFU BIN1 (11741810_x_at) / Fold change /veh BIN1 (11741810_x_at) / RFU WNT11 (11732464_a_at) / Fold change /veh WNT11 (11732464_a_at) / RFU C10orf10 (11716521_a_at) / Fold change /veh C10orf10 (11716521_a_at) / RFU C5orf56 (11738089_at) / Fold change /veh C5orf56 (11738089_at) / RFU CYB561 (11721691_x_at) / Fold change /veh CYB561 (11721691_x_at) / RFU ANKRD19P (11752326_a_at) / Fold change /veh ANKRD19P (11752326_a_at) / RFU OR2T12 /// OR2T33 /// OR2T8 (11738714_s_at) / Fold change /veh OR2T12 /// OR2T33 /// OR2T8 (11738714_s_at) / RFU VCAN (11748164_a_at) / Fold change /veh VCAN (11748164_a_at) / RFU JSRP1 (11732532_at) / Fold change /veh JSRP1 (11732532_at) / RFU KRTAP10-11 (11738290_x_at) / Fold change /veh KRTAP10-11 (11738290_x_at) / RFU MYO3A (11730013_a_at) / Fold change /veh MYO3A (11730013_a_at) / RFU EBF3 (11725865_a_at) / Fold change /veh EBF3 (11725865_a_at) / RFU CAMK2N1 (11719241_x_at) / Fold change /veh CAMK2N1 (11719241_x_at) / RFU C5orf56 (11738088_a_at) / Fold change /veh C5orf56 (11738088_a_at) / RFU OLFML3 (11715873_a_at) / Fold change /veh OLFML3 (11715873_a_at) / RFU LOC100653217 /// NTM (11731650_a_at) / Fold change /veh LOC100653217 /// NTM (11731650_a_at) / RFU MAPK11 (11762145_a_at) / Fold change /veh MAPK11 (11762145_a_at) / RFU FIZ1 (11724087_x_at) / Fold change /veh FIZ1 (11724087_x_at) / RFU OASL (11726364_x_at) / Fold change /veh OASL (11726364_x_at) / RFU SOX15 (11748057_x_at) / Fold change /veh SOX15 (11748057_x_at) / RFU CD79A (11719716_a_at) / Fold change /veh CD79A (11719716_a_at) / RFU HIST1H1D (11736915_at) / Fold change /veh HIST1H1D (11736915_at) / RFU CASKIN2 (11723855_a_at) / Fold change /veh CASKIN2 (11723855_a_at) / RFU LOC730098 (11760151_x_at) / Fold change /veh LOC730098 (11760151_x_at) / RFU OR4N2 (11742367_at) / Fold change /veh OR4N2 (11742367_at) / RFU PRRT2 (11749266_a_at) / Fold change /veh PRRT2 (11749266_a_at) / RFU SNX32 (11753110_a_at) / Fold change /veh SNX32 (11753110_a_at) / RFU CDHR5 (11726645_a_at) / Fold change /veh CDHR5 (11726645_a_at) / RFU RCAN1 (11760418_a_at) / Fold change /veh RCAN1 (11760418_a_at) / RFU FAM167A (11723789_a_at) / Fold change /veh FAM167A (11723789_a_at) / RFU FAM26E (11764081_at) / Fold change /veh FAM26E (11764081_at) / RFU ISYNA1 (11749810_s_at) / Fold change /veh ISYNA1 (11749810_s_at) / RFU ACY1 (11761880_at) / Fold change /veh ACY1 (11761880_at) / RFU 11764098_at / Fold change /veh 11764098_at / RFU SAMD14 (11745864_x_at) / Fold change /veh SAMD14 (11745864_x_at) / RFU NPB (11741838_a_at) / Fold change /veh NPB (11741838_a_at) / RFU TMPRSS6 (11731388_a_at) / Fold change /veh TMPRSS6 (11731388_a_at) / RFU KRTAP10-2 (11738614_at) / Fold change /veh KRTAP10-2 (11738614_at) / RFU ARHGAP8 /// PRR5-ARHGAP8 (11727945_x_at) / Fold change /veh ARHGAP8 /// PRR5-ARHGAP8 (11727945_x_at) / RFU KRTAP5-7 /// NADSYN1 (11734609_at) / Fold change /veh KRTAP5-7 /// NADSYN1 (11734609_at) / RFU RASL12 (11751679_a_at) / Fold change /veh RASL12 (11751679_a_at) / RFU CDKN2B (11736163_a_at) / Fold change /veh CDKN2B (11736163_a_at) / RFU PRF1 (11729649_at) / Fold change /veh PRF1 (11729649_at) / RFU, ZNF638 /// ZNF638-IT1 / Fold change vs veh, ZNF638 /// ZNF638-IT1 / RFU, PANK3 / Fold change vs veh, PANK3 / RFU, SH3YL1 / Fold change vs veh, SH3YL1 / RFU, ZEB2 / Fold change vs veh, ZEB2 / RFU, NRIP1 / Fold change vs veh, NRIP1 / RFU, PTTG1IP / Fold change vs veh, PTTG1IP / RFU, CAPN2 / Fold change vs veh, CAPN2 / RFU, MED14 / Fold change vs veh, MED14 / RFU, SNORA58 / Fold change vs veh, SNORA58 / RFU, C1orf63 / Fold change vs veh, C1orf63 / RFU, LRRFIP1 / Fold change vs veh, LRRFIP1 / RFU, NDUFAF7 / Fold change vs veh, NDUFAF7 / RFU, SLC12A2 / Fold change vs veh, SLC12A2 / RFU, IBTK / Fold change vs veh, IBTK / RFU, ESF1 / Fold change vs veh, ESF1 / Fold change vs veh, TMEM50B / RFU, TAOK1 / Fold change vs veh, TAOK1 / RFU, ACBD3 / Fold change vs veh, ACBD3 / RFU, TMA16 / Fold change vs veh, TMA16 / RFU, RWDD3 / Fold change vs veh, RWDD3 / RFU, BCAT1 / Fold change vs veh, BCAT1 / RFU, EDEM3 / Fold change vs veh, EDEM3 / RFU, TMEM33 / Fold change vs veh, TMEM33 / RFU, WDR75 / Fold change vs veh, WDR75 / RFU, AHCTF1 / Fold change vs veh, AHCTF1 / RFU, TFRC / Fold change vs veh, TFRC / RFU, ZDHHC17 / Fold change vs veh, ZDHHC17 / RFU, NOM1 / Fold change vs veh, NOM1 / RFU, ARL8B / Fold change vs veh, ARL8B / RFU, ZBTB11 / Fold change vs veh, ZBTB11 / RFU, TAMM41 / Fold change vs veh, TAMM41 / RFU, KIAA1704 /// LOC100996395 / Fold change vs veh, KIAA1704 /// LOC100996395 / RFU, ING1 / Fold change vs veh, ING1 / RFU, TRMT61B / Fold change vs veh, TRMT61B / RFU, FUBP3 / Fold change vs veh, FUBP3 / RFU, TP53 / Fold change vs veh, TP53 / RFU, TNKS2 / Fold change vs veh, TNKS2 / RFU, ZFP14 / Fold change vs veh, ZFP14 / RFU, ACTR2 / Fold change vs veh, ACTR2 / RFU, PPP3R1 / Fold change vs veh, PPP3R1 / RFU, PIK3R1 / Fold change vs veh, PIK3R1 / RFU, HNRNPA1 / Fold change vs veh, HNRNPA1 / RFU, RNF170 / Fold change vs veh, RNF170 / RFU, ZNF28 / Fold change vs veh, ZNF28 / RFU, RNGTT / Fold change vs veh, RNGTT / RFU, OGT / Fold change vs veh, OGT / RFU, BRD1 / Fold change vs veh, BRD1 / RFU, MARS / Fold change vs veh, MARS / RFU, ZNF655 / Fold change vs veh, ZNF655 / RFU, FAHD1 / Fold change vs veh, FAHD1 / RFU, BDP1 / Fold change vs veh, BDP1 / RFU, LRRCC1 / Fold change vs veh, LRRCC1 / RFU, ARID1A / Fold change vs veh, ARID1A / RFU, ZNF146 / Fold change vs veh, ZNF146 / RFU, ZNF330 / Fold change vs veh, ZNF330 / RFU, GPN3 / Fold change vs veh, GPN3 / RFU, C9orf123 / Fold change vs veh, C9orf123 / RFU, N4BP2L2 / Fold change vs veh, N4BP2L2 / RFU, ARFIP1 / Fold change vs veh, ARFIP1 / RFU, FAM179B / Fold change vs veh, FAM179B / RFU, BCL10 / Fold change vs veh, BCL10 / RFU, UHRF1BP1L / Fold change vs veh, UHRF1BP1L / RFU, BET1 / Fold change vs veh, BET1 / RFU, CNOT2 / Fold change vs veh, CNOT2 / RFU, ZNF268 / Fold change vs veh, ZNF268 / Fold change vs veh, ZNF507 / RFU, DGCR2 / Fold change vs veh, DGCR2 / RFU, WDSUB1 / Fold change vs veh, WDSUB1 / Fold change vs veh, HSP90B1 /// MIR3652 / RFU, ADSS / Fold change vs veh, ADSS / RFU, GK / Fold change vs veh, GK / RFU, ZNF148 / Fold change vs veh, ZNF148 / RFU, TAF9 / Fold change vs veh, TAF9 / RFU, SLC1A5 / Fold change vs veh, SLC1A5 / RFU, SLMO2 / Fold change vs veh, SLMO2 / RFU, ABCC4 / Fold change vs veh, ABCC4 / RFU, LOC101060439 /// RAP1B / Fold change vs veh, LOC101060439 /// RAP1B / RFU, RFX7 / Fold change vs veh, RFX7 / RFU, GTPBP10 / Fold change vs veh, GTPBP10 / RFU, CNEP1R1 / Fold change vs veh, CNEP1R1 / RFU, BIVM-ERCC5 /// ERCC5 / Fold change vs veh, BIVM-ERCC5 /// ERCC5 / RFU, ILF3 / Fold change vs veh, ILF3 / RFU 11762660_at / Fold change /veh 11762660_at / RFU VCAN (11757783_s_at) / Fold change /veh VCAN (11757783_s_at) / RFU DDX43 (11728927_at) / Fold change /veh DDX43 (11728927_at) / RFU KRT8 (11758188_x_at) / Fold change /veh KRT8 (11758188_x_at) / RFU NKD1 (11759106_at) / Fold change /veh NKD1 (11759106_at) / RFU SRD5A1 (11742802_a_at) / Fold change /veh SRD5A1 (11742802_a_at) / RFU TPSAB1 /// TPSB2 (11721975_s_at) / Fold change /veh TPSAB1 /// TPSB2 (11721975_s_at) / RFU GSTM3 (11746129_a_at) / Fold change /veh GSTM3 (11746129_a_at) / RFU IL23R (11737362_x_at) / Fold change /veh IL23R (11737362_x_at) / RFU TMEM51 (11727254_a_at) / Fold change /veh TMEM51 (11727254_a_at) / RFU PIWIL2 (11732686_x_at) / Fold change /veh PIWIL2 (11732686_x_at) / RFU ORM1 (11744905_x_at) / Fold change /veh ORM1 (11744905_x_at) / RFU CCDC152 (11743942_at) / Fold change /veh CCDC152 (11743942_at) / RFU ECM1 (11717891_a_at) / Fold change /veh ECM1 (11717891_a_at) / RFU IL23R (11748794_a_at) / Fold change /veh IL23R (11748794_a_at) / RFU TNFAIP8L3 (11732012_x_at) / Fold change /veh TNFAIP8L3 (11732012_x_at) / RFU MBOAT4 (11741988_at) / Fold change /veh MBOAT4 (11741988_at) / RFU 11764193_at / Fold change /veh 11764193_at / RFU TMEM53 (11763286_at) / Fold change /veh TMEM53 (11763286_at) / RFU MAGEB2 (11727129_at) / Fold change /veh MAGEB2 (11727129_at) / RFU TMEM200A (11744735_a_at) / Fold change /veh TMEM200A (11744735_a_at) / RFU CCDC152 (11751479_a_at) / Fold change /veh CCDC152 (11751479_a_at) / RFU FAM211A (11726209_a_at) / Fold change /veh FAM211A (11726209_a_at) / RFU RGS16 (11746705_a_at) / Fold change /veh RGS16 (11746705_a_at) / RFU VCAN (11755009_s_at) / Fold change /veh VCAN (11755009_s_at) / RFU RHOB (11743442_s_at) / Fold change /veh RHOB (11743442_s_at) / RFU RGS16 (11720943_a_at) / Fold change /veh RGS16 (11720943_a_at) / RFU RGS16 (11720944_at) / Fold change /veh RGS16 (11720944_at) / RFU, VPS4B / Fold change vs veh, VPS4B / RFU, CREB1 / Fold change vs veh, CREB1 / RFU, DNAJC13 / Fold change vs veh, DNAJC13 / RFU, GNAQ / Fold change vs veh, GNAQ / RFU, CDK5R1 / Fold change vs veh, CDK5R1 / RFU, ZRANB3 / Fold change vs veh, ZRANB3 / RFU, CUL4A / Fold change vs veh, CUL4A / RFU, CCNY / Fold change vs veh, CCNY / RFU, UFL1 / Fold change vs veh, UFL1 / RFU, COG3 / Fold change vs veh, COG3 / RFU, DIAPH2 / Fold change vs veh, DIAPH2 / RFU, SKA2 / Fold change vs veh, SKA2 / RFU, AFF3 / Fold change vs veh, AFF3 / RFU, LMF1 / Fold change vs veh, LMF1 / RFU, IPO11 / Fold change vs veh, IPO11 / RFU, DFFB / Fold change vs veh, DFFB / RFU, FOXP1 / Fold change vs veh, FOXP1 / RFU, CARD8 / Fold change vs veh, CARD8 / RFU, STRN3 / Fold change vs veh, STRN3 / RFU, ADK / Fold change vs veh, ADK / RFU, RASSF2 / Fold change vs veh, RASSF2 / RFU, WIPF1 / Fold change vs veh, WIPF1 / RFU, LARP1B / Fold change vs veh, LARP1B / RFU, RASA1 / Fold change vs veh, RASA1 / RFU, RB1 / Fold change vs veh, RB1 / RFU, PPFIA1 / Fold change vs veh, PPFIA1 / RFU, MAT2A / Fold change vs veh, MAT2A / RFU, CCT5 / Fold change vs veh, CCT5 / RFU, WDR92 / Fold change vs veh, WDR92 / RFU, CUX1 / Fold change vs veh, CUX1 / RFU, TTC7A / Fold change vs veh, TTC7A / RFU, TMEM135 / Fold change vs veh, TMEM135 / RFU, DEPTOR / Fold change vs veh, DEPTOR / RFU, CPM / Fold change vs veh, CPM / RFU, DNAJB6 / Fold change vs veh, DNAJB6 / RFU, CACNA2D3 / Fold change vs veh, CACNA2D3 / RFU, DTX4 / Fold change vs veh, DTX4 / RFU, TFCP2 / Fold change vs veh, TFCP2 / RFU, GMCL1 /// GMCL1P1 / Fold change vs veh, GMCL1 /// GMCL1P1 / RFU, AEBP2 / Fold change vs veh, AEBP2 / RFU, SNHG1 /// SNORD22 /// SNORD25 /// SNORD26 /// SNORD27 /// SNORD28 /// SNORD29 /// SNORD31 / Fold change vs veh, SNHG1 /// SNORD22 /// SNORD25 /// SNORD26 /// SNORD27 /// SNORD28 /// SNORD29 /// SNORD31 / Fold change (Aza/veh), C12orf56 (ProbeSet 11735607_a_at) / Fold change (ACY-1035/veh), C12orf56 (ProbeSet 11735607_a_at) / Fold change (Aza/veh), FGFR1OP (ProbeSet 11751329_s_at) / Fold change (ACY-1035/veh), FGFR1OP (ProbeSet 11751329_s_at) / Fold change (Aza/veh), VPS36 (ProbeSet 11739960_a_at) / Fold change (ACY-1035/veh), VPS36 (ProbeSet 11739960_a_at) / RFU SYPL1 (11715823_x_at) / Fold change /veh SYPL1 (11715823_x_at) / RFU IGFBP7 (11715501_s_at) / Fold change /veh IGFBP7 (11715501_s_at) / RFU REEP3 (11722064_at) / Fold change /veh REEP3 (11722064_at) / RFU IGLL1 (11728026_x_at) / Fold change /veh IGLL1 (11728026_x_at): dose or concentration left out as unconfirmed. The following applies: MV-4-11 cells, 48 hours.

`Nc1ccc(-c2cccs2)cc1NC(=O)c1ccc2c(c1)cc(C1CC1)n2CCN1CCOCC1` [ACY-1035]: the “RFU OASL (11726364_x_at)” value worked out at 41.33 RFU.
